Here are results for 15 substances from US7291594B2 (Sanwa Kagaku Kenkyusho Co., Ltd., priority 2002, dated 2007).

Where no end group is shown, it is not given here.

Data set [1] has as its system mice. Kind of data set: Oral glucose tolerance test (OGTT) in mice after nasal administration of GLP-1 derivative. The format is in vivo, mouse. Details: Blood insulin level (5 minutes after glucose administration): unit not given here. To be noted: for Blood glucose level (area under blood concentration-time curve (AUC0-20 min)) / Blood insulin level (5 minutes after glucose administration): average ± standard error. The method, then: That is, the GLP-1 derivative was administered via the nose into mice, and evaluated in an oral glucose tolerance test (OGTT) where a change in blood glucose level in the mice after tolerated with glucose was measured.
At the time of the test, the solution was diluted to a predetermined concentration with physiological saline.
(§1) Mice were anesthetized lightly with ether. […] The GLP-1 derivative solution was inhaled by breathing through the nose into the mouse.
The blood glucose level was determined by collecting several μl blood from a cut in the tail just before the test and 5, 10 and 20 minutes after glucose administration, and measuring the blood with a small blood-glucose-level measuring instrument (Glutest Ace, manufactured by Sanwa Kagaku Kenkyusho Co., Ltd.).
The blood insulin level was determined by collecting 75 μl blood from an orbital venous plexus with a heparin-treated glass capillary 5 minutes after administration of glucose, then centrifuging the blood and measuring plasma insulin by EIA (Levis Mouse Insulin Kit, manufactured by Shibayagi Co., Ltd.).

Data set [2] concerns mice. Description: OGTT in mice after nasal administration, with or without charge-regulated fat emulsion. It is filed as in vivo, mouse. Details: unit not given here. How it is done:
The charge-regulated fat emulsion used was prepared according to JP-A 8-27018; that is, a charge-regulated fat emulsion at a final concentration of 8% was obtained by using 2% (w/w) phosphatidyl glycerol (sodium salt), 8% (w/w) neutral oil and 90% (w/w) water.
50 μl of 8% charge-regulated fat emulsion was mixed with 3.56 μl of 1 mM 8S-GLP-1+5R solution and 146.4 μl distilled water to give 2% charge-regulated fat emulsion solution containing 8S-GLP-1+5R at a final concentration of 0.0178 mM.
as §1
The blood glucose level was determined by collecting several μl blood from a cut in the tail just before the test and 10, 20 and 30 minutes after glucose administration, and measuring glucose with a blood-glucose-level measuring instrument (Glutest Ace, manufactured by Sanwa Kagaku Kenkyusho Co., Ltd.).
The blood insulin level was determined by collecting 75 μl blood from an orbital venous plexus with a heparin-treated glass capillary 10 minutes after administration of glucose, then centrifuging the blood and measuring plasma insulin by EIA (Levis Mouse Insulin Kit, manufactured by Shibayagi Co., Ltd.).

The target of a further data set is T1, human GLP-1 receptor (Homo sapiens, UniProt P43220).
T1 construct: expressed in transfected cells; host or cells: CHO-K1 (Chinese hamster ovary)
T1 sequence (P43220 24-463): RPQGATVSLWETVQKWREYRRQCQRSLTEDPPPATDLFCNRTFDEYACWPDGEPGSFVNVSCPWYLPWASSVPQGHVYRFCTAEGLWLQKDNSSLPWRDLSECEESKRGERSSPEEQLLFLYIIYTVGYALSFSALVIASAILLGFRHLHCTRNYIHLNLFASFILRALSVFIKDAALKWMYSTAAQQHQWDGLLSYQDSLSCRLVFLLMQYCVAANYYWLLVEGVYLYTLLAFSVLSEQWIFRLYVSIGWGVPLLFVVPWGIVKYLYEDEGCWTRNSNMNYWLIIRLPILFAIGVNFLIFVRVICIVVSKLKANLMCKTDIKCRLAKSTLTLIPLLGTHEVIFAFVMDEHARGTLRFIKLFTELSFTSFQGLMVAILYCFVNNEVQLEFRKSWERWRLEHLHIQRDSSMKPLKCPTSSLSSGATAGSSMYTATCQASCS
Description: Cyclic AMP-producing activity in human GLP-1 receptor-expressing CHO-K1 cells. The format is cell-based.

The next data set deals with mouse Langerhans islet. Description: Insulin secretion stimulating activity using mouse Langerhans islet. The format is cell-based. The settings on record: 16.7 mM glucose.
Data set [3] has as its system mice. Description: Blood glucose lowering activity in mice after subcutaneous administration and intravenous glucose. To be noted: for Blood sugar level 20 minutes after tolerance with glucose: 0.5 g/kg glucose i.v., mouse. It is filed as in vivo, mouse.
For another data set, the target named is dipeptidyl peptidase IV (Homo sapiens, UniProt P27487). Kind of data set: Resistance to dipeptidyl peptidase IV (residual cAMP activity). The format is in vitro ADME. How it is done:
Thereafter, the sample was extracted with a 2-fold excess volume of ethanol, centrifuged and evaporated into dryness by an evaporator. The resulting dried product was dissolved in distilled water containing 1% BSA, and its cyclic AMP production activity was measured according to Test Example 1, to calculate the residual activity (%).

Chain of dipeptidyl peptidase IV (P27487 whole entry, species assumed): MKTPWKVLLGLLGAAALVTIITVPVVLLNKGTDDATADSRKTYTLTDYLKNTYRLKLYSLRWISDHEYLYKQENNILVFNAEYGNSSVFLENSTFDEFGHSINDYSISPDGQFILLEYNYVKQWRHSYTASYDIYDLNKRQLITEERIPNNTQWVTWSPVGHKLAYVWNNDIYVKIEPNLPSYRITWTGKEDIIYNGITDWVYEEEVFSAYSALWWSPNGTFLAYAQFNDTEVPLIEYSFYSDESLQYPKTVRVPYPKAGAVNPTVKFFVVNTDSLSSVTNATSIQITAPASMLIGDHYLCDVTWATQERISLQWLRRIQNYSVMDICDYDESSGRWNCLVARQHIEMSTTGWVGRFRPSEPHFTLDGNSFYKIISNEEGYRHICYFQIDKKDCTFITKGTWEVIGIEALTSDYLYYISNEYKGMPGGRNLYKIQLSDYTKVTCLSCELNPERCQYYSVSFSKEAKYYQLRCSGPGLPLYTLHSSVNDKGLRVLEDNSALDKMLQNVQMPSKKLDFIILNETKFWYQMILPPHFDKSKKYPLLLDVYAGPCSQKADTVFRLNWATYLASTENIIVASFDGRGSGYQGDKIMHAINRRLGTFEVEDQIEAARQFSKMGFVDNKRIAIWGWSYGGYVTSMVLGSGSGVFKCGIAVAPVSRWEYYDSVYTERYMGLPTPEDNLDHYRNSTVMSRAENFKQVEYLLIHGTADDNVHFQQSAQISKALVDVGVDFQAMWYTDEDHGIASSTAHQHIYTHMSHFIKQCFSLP

On to “[Ser^8]-GLP-1 (7-35)-Lys-Lys-Lys-Lys-Lys-Lys-Lys-Arg-NH2 (HSEGTFTSDVSSYLEGQAAKEFIAWLVKGKKKKKKKR-NH2) [8S, des36R-GLP-1 + 7KR]”, for which, in the data set with mice [1] (1.07 nmol/mouse), the “Blood glucose level (area under blood concentration-time curve (AUC0-20 min))” value (shortened to “Blood glucose level”) came out at 457 ± 69 mg·min/dL and the “Blood insulin level (5 minutes after glucose administration)” value is 1604 ± 344.
In the same order, the values of “[Ser^8]-GLP-1 (7-35)-Arg-Arg-Arg-Arg-Arg-Arg-Arg-Arg-Arg-NH2 (HSEGTFTSDVSSYLEGQAAKEFIAWLVKGRRRRRRRRR-NH2) [8S-GLP-1 + 8R]” are 487 ± 32 mg·min/dL and 1882 ± 402.
On to “[Ser^8]-GLP-1 (7-35)-Arg-Arg-Arg-Arg-Arg-Arg-NH2 (HSEGTFTSDVSSYLEGQAAKEFIAWLVKGRRRRRR-NH2) [8S-GLP-1 + 5R]”, for which, in the data set on mice [1] (1.07 nmol/mouse), the “Blood glucose level” value amounted to 483 ± 26 mg·min/dL and the “Blood insulin level (5 minutes after glucose administration)” value is 1504 ± 250. In addition, the “Blood insulin level (10 minutes after glucose administration)” value in the data set with mice [2] (0.357 nmol/mouse, used in combination with 2% charge-regulated fat emulsion) is reported as 560 ± 81. Further, in the data set on mice [2] (0.357 nmol/mouse, without charge-regulated fat emulsion), the “Blood insulin level (10 minutes after glucose administration)” value came out at 506 ± 34.
For the substance “[Ser^8]-GLP-1 (7-35)-Lys-Arg-NH2 (HSEGTFTSDVSSYLEGQAAKEFIAWLVKGKR-NH2) [8S, des36R-GLP-1 + 1KR]”, in the data set with mice [1] (1.07 nmol/mouse), the “Blood glucose level” value worked out at 611 ± 51 mg·min/dL and the “Blood insulin level (5 minutes after glucose administration)” value came out at 1349 ± 244.
In the same order, the values of “[Ser^8]-GLP-1 (7-35)-Lys-Lys-Lys-Lys-Lys-Lys-Lys-Lys-Lys-Lys-Arg-NH2 (HSEGTFTSDVSSYLEGQAAKEFIAWLVKGKKKKKKKKKKR-NH2) [8S, des36R-GLP-1 + 10KR]” are 492 ± 106 mg·min/dL and 2379 ± 520.
Turning to “[Ser^8]-GLP-1 (7-35)-Arg-Arg-Arg-Arg-NH2 (HSEGTFTSDVSSYLEGQAAKEFIAWLVKGRRRR-NH2) [8S-GLP-1 + 3R]”, in the data set with mice [1] (1.07 nmol/mouse), the “Blood glucose level” value came out at 509 ± 92 mg·min/dL and the “Blood insulin level (5 minutes after glucose administration)” value amounted to 1359 ± 318.
Take “[Ser^8]-GLP-1 (7-35)-Arg-Lys-Lys-NH2 (HSEGTFTSDVSSYLEGQAAKEFIAWLVKGRKK-NH2) [8S-GLP-1 + 2K]”: in the data set with mice [1] (1.07 nmol/mouse), the “Blood glucose level” value stood at 598 ± 63 mg·min/dL and the “Blood insulin level (5 minutes after glucose administration)” value was found to be 862 ± 150.
Regarding “[Ser^8]-GLP-1 (7-35)-Arg-Arg-Arg-Arg-Arg-NH2 (HSEGTFTSDVSSYLEGQAAKEFIAWLVKGRRRRR-NH2) [8S-GLP-1 + 4R]”, the “blood glucose depressing action (in words)” value in the data set on mice [1] was “strongest blood glucose depressing action”. Further, in the data set with mice [1] (1.07 nmol/mouse), the “Blood glucose level” value is 388 ± 54 mg·min/dL and the “Blood insulin level (5 minutes after glucose administration)” value was determined as 1713 ± 430.
Turning to “[Ser^8]-GLP-1 (7-35)-Lys-Lys-Lys-Arg-NH2 (HSEGTFTSDVSSYLEGQAAKEFIAWLVKGKKKR-NH2) [8S, des36R-GLP-1 + 3KR]”, in the data set on mice [1] (1.07 nmol/mouse), the “Blood glucose level” value was 557 ± 53 mg·min/dL and the “Blood insulin level (5 minutes after glucose administration)” value worked out at 1176 ± 233.
For “[Ser^8]-GLP-1 (7-35)-Lys-Lys-Arg-NH2 (HSEGTFTSDVSSYLEGQAAKEFIAWLVKGKKR-NH2) [8S, des36R-GLP-1 + 2KR]” the same measures were 564 ± 52 mg·min/dL and 1243 ± 309.
For “[Ser^8]-GLP-1 (7-35)-Lys-Lys-Lys-Lys-Lys-Arg-NH2 (HSEGTFTSDVSSYLEGQAAKEFIAWLVKGKKKKKR-NH2) [8S, des36R-GLP-1 + 5KR]”, the “blood glucose depressing action (in words)” value in the data set with mice [1] is listed as “strongest blood glucose depressing action”. Besides, in the data set on mice [1] (1.07 nmol/mouse), the “Blood glucose level” value stood at 404 ± 71 mg·min/dL and the “Blood insulin level (5 minutes after glucose administration)” value was 2229 ± 346.
For “[Ser^8, Gln^26, Asn^34]-GLP-1 (7-35)-Arg (HSEGTFTSDVSSYLEGQAAQEFIAWLVNGR; ends and bridges not checked) [8S26Q34N-GLP-1]”, the “in vitro activity of producing cyclic AMP (in words)” value in the data set with human GLP-1 receptor is “the activity was maintained”. The “Amount of cAMP produced” value in the data set with human GLP-1 receptor (concentration −8 log M) was 79.2 pmol/10^5 cell/30 min; with human GLP-1 receptor (concentration −9 log M) it was 76.1 pmol/10^5 cell/30 min; with human GLP-1 receptor (concentration −10 log M), 24.2 pmol/10^5 cell/30 min; with human GLP-1 receptor (concentration −11 log M), 4.7 pmol/10^5 cell/30 min; with human GLP-1 receptor (concentration −12 log M) it was 0.6 pmol/10^5 cell/30 min. In addition, the “insulin secretion stimulating activity compared with naturally occurring GLP-1 (in words)” value with mouse Langerhans islet (30 minutes) was “stronger insulin secretion stimulating activity than that of the naturally occurring GLP-1”. Besides, the “Amount of insulin secreted” value worked out at 9.85 ng/islet/30 min with mouse Langerhans islet (assay concentration −8 log M), 6.61 ng/islet/30 min in the data set on mouse Langerhans islet (assay concentration −9 log M) and 3.64 ng/islet/30 min in the data set with mouse Langerhans islet (assay concentration −10 log M). Moreover, in the data set on mice [3], the “blood glucose lowering activity in mice (in words)” value was “concentration-dependent depression in blood glucose level”. The “Blood sugar level 20 minutes after tolerance with glucose” value in the data set with mice [3] (5 μg/kg) was 110 mg/dL; in the data set with mice [3] (10 μg/kg) it was 95 mg/dL; in the data set on mice [3] (20 μg/kg), 21 mg/dL.
On to “[Ser^8]-GLP-1 (7-35)-Arg-Arg-Arg-Arg-Arg-Arg-Arg-NH2 (HSEGTFTSDVSSYLEGQAAKEFIAWLVKGRRRRRRR-NH2) [8S-GLP-1 + 6R]”, for which, in the data set on mice [1] (1.07 nmol/mouse), the “Blood glucose level” value came to 559 ± 27 mg·min/dL and the “Blood insulin level (5 minutes after glucose administration)” value is 1633 ± 449.
With “[Ser^8]-GLP-1 (7-35)-Arg-Arg-Arg-NH2 (HSEGTFTSDVSSYLEGQAAKEFIAWLVKGRRR-NH2) [8S-GLP-1 + 2R]”, in the data set on mice [1] (1.07 nmol/mouse), the “Blood glucose level” value came out at 535 ± 58 mg·min/dL and the “Blood insulin level (5 minutes after glucose administration)” value is given as 957 ± 86.
Take GLP-1 (7-36)—NH2 [reference compound]: the “Blood glucose level” value with mice [1] (1.07 nmol/mouse) amounted to 697 ± 94 mg·min/dL; in the data set with mice [1] (10.7 nmol/mouse), 399 ± 35 mg·min/dL. Also, the entries for the “Blood insulin level (5 minutes after glucose administration)” value in the data set on mice [1] (1.07 nmol/mouse) and with mice [1] (10.7 nmol/mouse) were 662 ± 91 and 743 ± 147, respectively. The “Residual activity (%)” value at dipeptidyl peptidase IV (DPP IV + (40 μU/μl, 37° C., 60 minutes)) is on record as 25%; at dipeptidyl peptidase IV (DPP IV −(not treated)), 100%. For the same substance, in the data set on mice [2] (10.7 nmol/mouse, without charge-regulated fat emulsion), the “Blood insulin level (10 minutes after glucose administration)” value is listed as 377 ± 41. For the same substance, the “Amount of insulin secreted” value in the data set with mouse Langerhans islet (assay concentration −8 log M) is given as 6.71 ng/islet/30 min; in the data set with mouse Langerhans islet (assay concentration −9 log M), 5.11 ng/islet/30 min; in the data set on mouse Langerhans islet (assay concentration −10 log M) it was 4.11 ng/islet/30 min. Besides, the “Blood sugar level 20 minutes after tolerance with glucose” value is 119 mg/dL in the data set on mice [3] (5 μg/kg), 103 mg/dL in the data set with mice [3] (10 μg/kg) and 75 mg/dL with mice [3] (20 μg/kg).
